Columns and labels:
[1] = molecular target: T1, human sodium channels Nav 1.7 (Homo sapiens, UniProt Q15858); experiment: Automated whole-cell voltage-clamp (ScreenPatch 384P) sodium current block, Nav 1.7; assay type: cell-based; settings: CHO cells stably expressing human Nav 1.7; inactivation step -40 mV for 8 seconds, test step 0 mV (TP1A); exposure at least five minutes; room temperature; mean if two or more assays; read-out: Nav1.7 IC50
T1 construct: expressed in transfected cells
Procedure: (§1) Biological assays were performed on Chinese hamster ovary (CHO) cells that express human sodium channels Nav 1.8 or Nav 1.7 in a stable manner.
(§2) The experimental protocol voltage-clamp using the whole cell configuration was established on the automated ScreenPatch® 384P platform (SP384PE, Nanion Technologies, Livingston, NJ) and the results were recorded with a Nanion 384-well Patch Clamp chip (NPC) (Nanion Technologies, Livingston, NJ).
(§3) Formula I compounds were diluted in eight concentrations in the extracellular solution composed of saline saline solution, buffered with HEPES (mM): NaCl, 137; KCl, 4; CaCl2, 3,8; MgCl2, 1; HEPES, 10; Glucose, 10; pH 7.4. The […], 50; CsF, 90; MgCl2, 5; EGTA, 5; HEPES, 10; pH 7.2. The duration of exposure of each compound with cells expressing Nav 1.7 or Nav 1.8 was at least five minutes and the assays were performed at room temperature.
(§4) The measurements of the sodium currents of Nav 1.8 and Nav 1.7 were obtained using the voltage protocol described below.
(§5) A holding voltage of -100 mV was established followed by an inactivation voltage step at -40 mV for 8 seconds, followed by a step of -100 mV for 20 ms, followed by a 20 ms step for 10 mV for Nav 1.8 or 0 mV for Nav 1.7 (TP1A) before returning to the holding voltage of -100 mV.
(§6) The protocol was repeated at a frequency of 0.05 Hz and the amplitude of the current was quantified throughout the recording of the TP1A phase. The variation in the amplitude of the peak current was evaluated according to the formula described below, after exposing the cells expressing the channels to each concentration of the different compounds: % Block = (1−(ITP1A,molecule/ITP1A,basal)×100%, [formula] wherein ITP1A,basal and ITP1A,molecule represent the peaks of sodium current input into TP1A before exposure to the compound and in the presence of the compound, respectively.
(§7) Data were obtained by nonlinear regression (nonlinear least squares) with XLfit for Excel (Microsoft, Redmond, WA).
(§8) The compounds were tested in at least one assay to obtain the value of CI50. For compounds that were tested in two or more assays, the results are described as the mean of the CI50 values.

[2] = molecular target: T2, human sodium channels Nav 1.8 (Homo sapiens, UniProt Q9Y5Y9); experiment: Automated whole-cell voltage-clamp (ScreenPatch 384P) sodium current block, Nav 1.8; assay type: cell-based; settings: CHO cells stably expressing human Nav 1.8; inactivation step -40 mV for 8 seconds, test step 10 mV (TP1A); exposure at least five minutes; room temperature; mean if two or more assays; read-out: Nav1.8 IC50
T2 construct: expressed in transfected cells
Procedure: as §1, §2, §3, §4, §5, §6, §7, §8

T1 sequence (Q15858 whole entry): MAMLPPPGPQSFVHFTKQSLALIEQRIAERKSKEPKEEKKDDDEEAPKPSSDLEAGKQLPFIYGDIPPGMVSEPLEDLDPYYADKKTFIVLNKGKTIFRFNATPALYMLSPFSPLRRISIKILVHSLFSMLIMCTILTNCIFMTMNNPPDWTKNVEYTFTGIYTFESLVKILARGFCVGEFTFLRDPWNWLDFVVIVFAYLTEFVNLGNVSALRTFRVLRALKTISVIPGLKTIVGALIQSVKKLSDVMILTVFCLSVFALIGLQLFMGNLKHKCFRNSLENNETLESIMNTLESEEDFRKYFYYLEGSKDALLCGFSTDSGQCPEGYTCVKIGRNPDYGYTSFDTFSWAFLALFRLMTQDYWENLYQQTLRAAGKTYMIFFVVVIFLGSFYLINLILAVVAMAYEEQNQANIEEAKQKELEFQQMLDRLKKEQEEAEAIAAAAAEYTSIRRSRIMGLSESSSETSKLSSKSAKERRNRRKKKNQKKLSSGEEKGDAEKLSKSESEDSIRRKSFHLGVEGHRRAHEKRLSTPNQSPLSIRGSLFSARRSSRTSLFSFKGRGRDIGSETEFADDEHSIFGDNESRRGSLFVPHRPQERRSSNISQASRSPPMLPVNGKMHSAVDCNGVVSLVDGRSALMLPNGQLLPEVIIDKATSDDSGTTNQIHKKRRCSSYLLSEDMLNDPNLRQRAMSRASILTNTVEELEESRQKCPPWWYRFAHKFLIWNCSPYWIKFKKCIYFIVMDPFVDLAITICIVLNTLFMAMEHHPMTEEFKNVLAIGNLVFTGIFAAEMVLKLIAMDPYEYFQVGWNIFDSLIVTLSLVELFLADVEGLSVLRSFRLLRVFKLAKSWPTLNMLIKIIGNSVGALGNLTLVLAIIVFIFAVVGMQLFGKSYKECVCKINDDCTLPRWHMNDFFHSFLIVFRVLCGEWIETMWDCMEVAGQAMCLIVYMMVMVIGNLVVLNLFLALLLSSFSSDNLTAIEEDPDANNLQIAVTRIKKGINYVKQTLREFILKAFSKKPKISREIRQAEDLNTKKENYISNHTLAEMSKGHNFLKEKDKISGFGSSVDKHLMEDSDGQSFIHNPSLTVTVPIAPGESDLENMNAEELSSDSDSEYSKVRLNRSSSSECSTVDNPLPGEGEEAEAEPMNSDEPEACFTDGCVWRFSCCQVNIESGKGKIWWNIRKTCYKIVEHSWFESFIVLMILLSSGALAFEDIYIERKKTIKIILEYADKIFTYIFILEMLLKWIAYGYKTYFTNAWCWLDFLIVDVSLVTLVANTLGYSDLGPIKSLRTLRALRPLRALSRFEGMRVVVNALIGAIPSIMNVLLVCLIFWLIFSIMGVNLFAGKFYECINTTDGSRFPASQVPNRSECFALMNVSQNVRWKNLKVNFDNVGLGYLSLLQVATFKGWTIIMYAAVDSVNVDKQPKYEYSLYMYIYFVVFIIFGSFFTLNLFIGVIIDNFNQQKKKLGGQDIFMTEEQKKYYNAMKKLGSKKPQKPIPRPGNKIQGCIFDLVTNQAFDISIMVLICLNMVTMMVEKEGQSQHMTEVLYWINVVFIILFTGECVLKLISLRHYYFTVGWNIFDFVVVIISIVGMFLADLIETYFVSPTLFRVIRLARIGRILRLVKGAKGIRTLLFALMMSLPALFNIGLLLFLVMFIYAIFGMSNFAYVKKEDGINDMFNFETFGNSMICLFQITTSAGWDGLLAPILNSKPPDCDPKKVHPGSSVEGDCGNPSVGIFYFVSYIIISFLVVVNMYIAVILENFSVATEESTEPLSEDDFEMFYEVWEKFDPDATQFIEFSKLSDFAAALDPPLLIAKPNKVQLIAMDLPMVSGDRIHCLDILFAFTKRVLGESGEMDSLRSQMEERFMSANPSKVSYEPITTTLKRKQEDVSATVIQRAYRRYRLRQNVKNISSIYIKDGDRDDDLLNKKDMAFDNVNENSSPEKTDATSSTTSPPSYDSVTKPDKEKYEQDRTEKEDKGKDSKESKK
T2 sequence (Q9Y5Y9 whole entry): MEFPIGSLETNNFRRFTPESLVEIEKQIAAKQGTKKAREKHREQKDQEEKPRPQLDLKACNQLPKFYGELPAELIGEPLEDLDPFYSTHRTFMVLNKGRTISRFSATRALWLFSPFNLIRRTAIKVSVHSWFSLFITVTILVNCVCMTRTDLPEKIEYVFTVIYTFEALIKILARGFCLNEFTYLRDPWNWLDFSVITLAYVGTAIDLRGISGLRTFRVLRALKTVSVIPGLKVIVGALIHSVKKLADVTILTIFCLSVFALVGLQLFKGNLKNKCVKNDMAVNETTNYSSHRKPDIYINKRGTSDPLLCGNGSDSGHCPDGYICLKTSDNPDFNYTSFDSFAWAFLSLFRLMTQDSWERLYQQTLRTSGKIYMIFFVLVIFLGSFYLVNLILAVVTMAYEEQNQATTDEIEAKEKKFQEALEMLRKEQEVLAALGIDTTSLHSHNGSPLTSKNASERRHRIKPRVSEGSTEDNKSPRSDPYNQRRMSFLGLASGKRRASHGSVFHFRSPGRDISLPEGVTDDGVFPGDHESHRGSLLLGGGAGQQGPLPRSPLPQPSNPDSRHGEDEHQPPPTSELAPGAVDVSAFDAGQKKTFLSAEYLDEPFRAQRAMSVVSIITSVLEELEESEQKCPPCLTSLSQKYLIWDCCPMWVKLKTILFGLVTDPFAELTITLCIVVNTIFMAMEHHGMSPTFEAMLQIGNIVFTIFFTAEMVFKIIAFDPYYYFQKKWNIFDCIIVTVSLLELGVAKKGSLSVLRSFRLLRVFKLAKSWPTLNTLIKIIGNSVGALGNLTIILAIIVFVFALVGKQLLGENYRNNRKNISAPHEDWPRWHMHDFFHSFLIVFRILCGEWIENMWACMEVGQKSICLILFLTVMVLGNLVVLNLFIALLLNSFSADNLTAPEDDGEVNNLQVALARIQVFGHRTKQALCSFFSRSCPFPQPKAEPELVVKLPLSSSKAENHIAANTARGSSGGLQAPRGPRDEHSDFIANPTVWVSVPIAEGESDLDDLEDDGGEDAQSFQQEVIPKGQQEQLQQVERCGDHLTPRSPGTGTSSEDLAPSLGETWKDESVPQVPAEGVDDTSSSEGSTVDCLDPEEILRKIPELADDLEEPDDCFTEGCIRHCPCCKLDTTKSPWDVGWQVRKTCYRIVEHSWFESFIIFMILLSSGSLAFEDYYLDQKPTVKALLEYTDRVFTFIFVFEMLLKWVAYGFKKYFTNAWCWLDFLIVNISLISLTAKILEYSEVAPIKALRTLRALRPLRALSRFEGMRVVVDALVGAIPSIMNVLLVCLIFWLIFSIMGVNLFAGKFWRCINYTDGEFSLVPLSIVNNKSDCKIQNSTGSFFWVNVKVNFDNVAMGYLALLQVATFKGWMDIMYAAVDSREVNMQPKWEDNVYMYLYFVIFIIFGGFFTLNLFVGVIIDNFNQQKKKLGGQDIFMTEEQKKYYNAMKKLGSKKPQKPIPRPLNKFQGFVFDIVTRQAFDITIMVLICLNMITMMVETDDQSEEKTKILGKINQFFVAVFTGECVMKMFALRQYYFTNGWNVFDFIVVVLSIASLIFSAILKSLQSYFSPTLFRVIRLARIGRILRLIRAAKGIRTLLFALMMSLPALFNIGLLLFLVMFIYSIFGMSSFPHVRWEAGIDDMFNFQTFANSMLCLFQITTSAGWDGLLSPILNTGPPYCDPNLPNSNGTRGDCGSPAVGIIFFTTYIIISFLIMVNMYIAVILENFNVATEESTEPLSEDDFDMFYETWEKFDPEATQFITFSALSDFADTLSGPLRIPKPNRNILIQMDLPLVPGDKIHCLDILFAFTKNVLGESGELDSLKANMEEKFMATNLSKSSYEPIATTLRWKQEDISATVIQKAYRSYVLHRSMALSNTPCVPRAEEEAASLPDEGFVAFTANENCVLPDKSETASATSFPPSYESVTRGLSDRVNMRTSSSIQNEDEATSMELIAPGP

SMILES | IC50 [1] [nM] | IC50 [2] [nM]
CCOc1ccc(-c2cncc(C(=O)NOCc3cc(OC)ccc3F)n2)cc1O [Compound 89] | > 1000 | < 500
COc1cncc(CONC(=O)c2cncc(-c3ccc(OC(F)F)nc3)n2)c1 [Compound 82] | > 1000 | > 1000
[2H]C([2H])([2H])Oc1ccc(F)c(CONC(=O)c2cncc(-c3ccc(OC(F)F)nc3)n2)c1 [Compound 83] | > 1000 | > 1000
CCOc1ccc(-c2cccc(C(=O)NOCc3cc(OC)ccc3F)n2)cn1 [Compound 106] | > 1000 | > 1000
COc1ccc(F)c(CONC(=O)c2nccc(-c3ccc(OC(F)F)nc3)n2)c1 [Compound 119] | > 1000 | < 500
COc1ccc(F)c(CONC(=O)c2cncc(-c3ccc(OCC4CNC4)cc3)n2)c1 [Compound 23, 6-(4-(azetidine-3-ylmethoxy)phenyl)-N-((2-fluoro-5-methoxybenzyl)oxy)pyrazine-2-carboxamide] | > 1000 | > 1000
COc1ccc(-c2cncc(C(=O)NOCc3cc(OC)ccc3F)n2)cc1 [Compound 2, N-((2-fluoro-5-methoxybenzyl)oxy)-6-(4-methoxyphenyl)pyrazine-2-carboxamide] | > 1000 | < 500
COc1ccc(F)c(CONC(=O)c2cncc(-c3ccc(OC(F)F)cc3OC)n2)c1 [Compound 88] | > 1000 | > 1000
CCOc1ccc(-c2cncc(C(=O)NOCc3cc(OC(C)C)ccc3F)n2)cc1 [Compound 10, 6-(4-ethoxyphenyl)-N-((2-fluoro-5-isopropoxybenzyl)oxy)pyrazine-2-carboxamide] | > 1000 | < 500
CCOc1ccc(-c2cncc(C(=O)NOCc3cccc(OC)c3)n2)cn1 [Compound 33, 6-(6-ethoxypyridine-3-yl)-N-((3-methoxybenzyl)oxy)pyrazine-2-carboxamide] | > 1000 | < 500
CCOc1ccc(-c2nc(C(=O)NOCc3cc(OC)ccc3F)cnc2F)cn1 [Compound 104] | > 1000 | < 500
COc1cnc(F)c(CONC(=O)c2nc(-c3ccc(OC(F)F)nc3)cnc2N)c1 [Compound 120] | > 1000 | > 1000
CCOc1ccc(-c2cncc(C(=O)NOCc3cc(OC)ccc3F)c2)cn1 [Compound 108] | > 1000 | > 1000
CCOc1ccc(-c2nc(C(=O)NOCc3cc(OC)cc(OC)c3)cnc2O)cc1 [Compound 96] | < 500 | < 500
CCOc1ccc(-c2cncc(C(=O)NOCc3cc(OC)ccc3F)n2)c(OC)n1 [Compound 94] | > 1000 | > 1000
COc1ccc(F)c(CONC(=O)c2cncc(-c3ccc(OC)nc3)n2)c1 [Compound 30, N-((2-fluoro-5-methoxybenzyl)oxy)-6-(6-methoxypyridine-3-yl)pyrazine-2-carboxamide] | > 1000 | < 500
CCOc1ccc(-c2cncc(C(=O)NOCc3ccnn3C)n2)cn1 [Compound 58] | > 1000 | > 1000
CCOc1ccc(-c2cncc(C(=O)NOCc3cc(OC)ncc3F)n2)cn1 [Compound 39, 6-(6-ethoxypyridine-3-yl)-N-((5-fluoro-2-methoxypyridine-4-yl)methoxy)pyrazine-2-carboxamide] | > 1000 | < 500
CCOc1ccc(-c2cnc(F)c(C(=O)NOCc3cc(OC)ccc3F)n2)cn1 [Compound 105] | > 1000 | 500 to 1000
CCOc1cc(C)c(-c2cncc(C(=O)NOCc3cc(OC)ccc3F)n2)cn1 [Compound 93] | > 1000 | > 1000

SMILES | IC50 [1] [nM] | IC50 [2] [nM]
COc1ccc(F)c(CONC(=O)c2cncc(-c3ccc(OCC4CN(C)C4)cc3)n2)c1 [Compound 26, N-((2-fluoro-5-methoxybenzyl)oxy)-6-(4-((1-methylazetidine-3-yl)methoxy)phenyl)pyrazine-2-carboxamide] | 500 to 1000 | < 500
CCOc1ccc(-c2cncc(C(=O)NOCc3cccn3C)n2)cn1 [Compound 60, 6-(6-ethoxypyridine-3-yl)-N-((1-methyl-1H-pyrrole-2-yl)methoxy)pyrazine-2-carboxamide] | 500 to 1000 | < 500
[2H]C([2H])([2H])COc1ccc(-c2cncc(C(=O)NOCc3cc(OC)ccc3F)n2)cn1 [Compound 49, 6-(6-(ethoxy-2,2,2-d3)pyridine-3-yl)-N-((2-fluoro-5-methoxybenzyl)oxy)pyrazine-2-carboxamide] | > 1000 | > 1000
COc1ccc(F)c(CONC(=O)c2cccc(-c3ccc(OC(F)F)nc3)n2)c1 [Compound 115] | > 1000 | > 1000
CCOc1ccc(-c2cncc(C(=O)NOCc3c[nH]nc3C)n2)cn1 [Compound 69, 6-(6-ethoxypyridine-3-yl)-N-((3-methyl-1H-pyrazole-4-yl)methoxy)pyrazine-2-carboxamide] | > 1000 | > 1000
COc1ccc(F)c(CONC(=O)c2nc(-c3ccc(OC(F)F)nc3)cnc2F)c1 [Compound 123] | > 1000 | > 1000
O=C(NOCc1ccccc1F)c1cncc(-c2ccc(OC(F)(F)F)nc2)n1 [Compound 71] | < 500 | < 500
CCOc1ccc(-c2cncc(C(=O)NOCc3cc(OC)cc(OC)c3)n2)cc1 [Compound 20, N-((3,5-dimethoxybenzyl)oxy)-6-(4-ethoxyphenyl)pyrazine-2-carboxamide] | > 1000 | > 1000
CCOc1ccc(-c2cncc(C(=O)NOCc3cc(N(C)C)cnc3F)n2)cn1 [Compound 41, N-((5-(dimethylamino)-2-fluoropyridine-3-yl)methoxy)-6-(6-ethoxypyridine-3-yl)pyrazine-2-carboxamide] | > 1000 | < 500
O=C(NOCc1cccnc1)c1cncc(-c2ccc(OC(F)(F)F)nc2)n1 [Compound 74] | > 1000 | < 500
COc1ccc(F)c(CONC(=O)c2cncc(-c3ccc(OC(C)C)cc3)n2)c1 [Compound 3, N-((2-fluoro-5-methoxybenzyl)oxy)-6-(4-isopropoxyphenyl)pyrazine-2-carboxamide] | < 500 | < 500
CCOc1ccc(-c2cncc(C(=O)NOCc3cc(C(C)N)ccc3F)n2)cc1 (centres unmarked) [Compound 17, N-((5-(1-aminoethyl)-2-fluorobenzyl)oxy)-6-(4-ethoxyphenyl)pyrazine-2-carboxamide] | > 1000 | < 500
CCOc1ccc(-c2cncc(C(=O)NOCc3cc(OC)cnc3F)n2)cn1 [Compound 38, 6-(6-ethoxypyridine-3-yl)-N-((2-fluoro-5-methoxypyridine-3-yl)methoxy)pyrazine-2-carboxamide] | > 1000 | < 500
COc1cnc(F)c(CONC(=O)c2cccc(-c3ccc(OC(F)F)nc3)n2)c1 [Compound 114] | > 1000 | 500 to 1000
COc1ccc(F)c(CONC(=O)c2cnc(F)c(-c3ccc(OC(F)F)nc3)n2)c1 [Compound 124] | > 1000 | > 1000
COc1cnc(F)c(CONC(=O)c2ccnc(-c3ccc(OC(F)F)nc3)n2)c1 [Compound 117] | > 1000 | > 1000
CCOc1ccc(-c2cncc(C(=O)NOCc3cc(OC)ccc3C3CC3)n2)cc1 [Compound 15, N-((2-cyclopropyl-5-methoxybenzyl)oxy)-6-(4-ethoxyphenyl)pyrazine-2-carboxamide] | < 500 | < 500
CCOc1ccc(-c2cncc(C(=O)NOCc3cc(N(C)C)ccc3F)n2)cn1 [Compound 40, N-((5-(dimethylamino)-2-fluorobenzyl)oxy)-6-(6-ethoxypyridine-3-yl)pyrazine-2-carboxamide] | > 1000 | < 500
CCOc1ccc(-c2cnc(N)c(C(=O)NOCc3cc(OC)ccc3F)n2)cn1 [Compound 103] | > 1000 | 500 to 1000
CCOc1ccc(-c2cncc(C(=O)NOCc3ccnn3CC)n2)cn1 [Compound 62, 6-(6-ethoxypyridine-3-yl)-N-((1-ethyl-1H-pyrazole-5-yl)methoxy)pyrazine-2-carboxamide] | > 1000 | > 1000
